Experimental findings from ChEMBL document CHEMBL4000244, “Probing A-form DNA: A fluorescent aminosugar probe and dual recognition by anthraquinone-neomycin conjugates” (Bioorg Med Chem, 2017) are described below.

Usually IC50 stands for the concentration that inhibits the measured activity by half. Low readings indicate greater potency, high ones weaker potency.

The source made the active and inactive calls. No cut-off for these calls is given here.

A short description of test [1]: Displacement of thiazole orange from d(G4C4)2 DNA by Scatchard plot analysis.
Test [2] is described as follows: Displacement of fluorescein-neomycin from d(G4C4)2 DNA at 200 nM by fluorescence assay.
Test [3] in a line: Displacement of fluorescein-neomycin from d(G4C4)2 DNA by Scatchard plot analysis.
A short description of test [4]: Binding affinity to d(G4C4)2 DNA major groove assessed as stabilization of A-from DNA conformation after 30 mins by CD spectroscopic method.
The nature of test [5]: Binding affinity to d(G4C4)2 DNA major groove assessed as stabilization of A-from DNA conformation at 0.25 to 1.5 equiv after 30 mins by thiazole orange probe based CD spectroscopic method.
Test [6] in a line: Binding affinity to d(G4C4)2 DNA major groove assessed as stabilization of A-from DNA conformation at 0.05 to 1.5 equiv after 30 mins by fluorescein-neomycin probe based CD spectroscopic method.
The nature of test [7]: Binding affinity to d(G4C4)2 DNA major groove assessed as stabilization of A-from DNA conformation by measuring induction of sharper band at 265 nanometer at drug:DNA molar ratio of 1:1 after 30 mins by CD spectroscopic method.
Test [8] can be described thus: Displacement of fluorescein-neomycin from d(G4C4)2 DNA major groove by fluorescence titration assay.
The nature of test [9]: Binding affinity to d(G4C4)2 DNA major groove assessed as stabilization of A-from DNA conformation at drug:DNA molar ratio of 4:1 after 30 mins by CD spectroscopic method.

Take `NCC1O[C@H](O[C@H]2[C@@H](O)[C@H](O[C@@H]3[C@@H](O)[C@H](N)C[C@H](N)[C@H]3O[C@H]3O[C@H](CN)[C@@H](O)[C@H](O)[C@H]3N)O[C@@H]2CNC(=S)NCCCOCCCCOCCCNC(=S)NCc2ccc3c(c2)C(=O)c2ccccc2C3=O)[C@H](N)[C@@H](O)[C@@H]1O` (some centres undefined): the results for the Ka in [1] and in test [3] were 11.8 ×10⁶ /M and 8.83 ×10⁶ /M, respectively. Besides, the inhibition result in test [2] was “Active”.

Take `OCC(F)(F)F`: the result in test [4] was Active.

Regarding `O=C1c2ccccc2C(=O)c2ccccc21`, in test [2], the inhibition entry is “inactive”.

On to `NCC1O[C@H](O[C@H]2[C@@H](O)[C@H](O[C@@H]3[C@@H](O)[C@H](N)C[C@H](N)[C@H]3O[C@H]3O[C@H](CN)[C@@H](O)[C@H](O)[C@H]3N)O[C@@H]2CNC(=S)NCCNC(=S)NCc2ccc3c(c2)C(=O)c2ccccc2C3=O)[C@H](N)[C@@H](O)[C@@H]1O` (some centres undefined), for which the Ka in [1] was determined as 3.85 ×10⁶ /M; in test [3], 4.88 ×10⁶ /M. In addition, in test [2], the inhibition entry is “Active”.

On to `NCC1O[C@H](O[C@H]2[C@@H](O)[C@H](O[C@@H]3[C@@H](O)[C@H](N)C[C@H](N)[C@H]3O[C@H]3O[C@H](CN)[C@@H](O)[C@H](O)[C@H]3N)O[C@@H]2CSCCNC(=S)NCc2ccc3c(c2)C(=O)c2ccccc2C3=O)[C@H](N)[C@@H](O)[C@@H]1O` (some centres undefined), for which the figures for the Ka in test [1] and in test [3] were 3.62 ×10⁶ /M and 25.3 ×10⁶ /M, respectively. Besides, the result in test [5] and in test [6] was Active. Also, the inhibition entry in test [2] was “Active”.

Consider `NCC1O[C@H](O[C@H]2[C@@H](O)[C@H](O[C@@H]3[C@@H](O)[C@H](N)C[C@H](N)[C@H]3O[C@H]3O[C@H](CN)[C@@H](O)[C@H](O)[C@H]3N)O[C@@H]2CNC(=S)NCCCCCCCCCCNC(=S)NCc2ccc3c(c2)C(=O)c2ccccc2C3=O)[C@H](N)[C@@H](O)[C@@H]1O` (some centres undefined), for which the inhibition entry in test [2] was “Active”.

In the case of `NCC1O[C@H](O[C@H]2[C@@H](O)[C@H](O[C@@H]3[C@@H](O)[C@H](N)C[C@H](N)[C@H]3O[C@H]3O[C@H](CN)[C@@H](O)[C@H](O)[C@H]3N)O[C@@H]2CSCCNC(=S)NCCCCCCCCCCNC(=S)NCc2ccc3c(c2)C(=O)c2ccccc2C3=O)[C@H](N)[C@@H](O)[C@@H]1O` (some centres undefined), the inhibition entry in [2] was “Active”.

With `NCC1O[C@H](O[C@H]2[C@@H](O)[C@H](O[C@@H]3[C@@H](O)[C@H](N)C[C@H](N)[C@H]3O[C@H]3O[C@H](CN)[C@@H](O)[C@H](O)[C@H]3N)O[C@@H]2CNC(=S)NCCCNC(=S)NCc2ccc3c(c2)C(=O)c2ccccc2C3=O)[C@H](N)[C@@H](O)[C@@H]1O` (some centres undefined), the inhibition result in test [2] was “Active”.

As for `NCC1O[C@H](O[C@H]2[C@@H](O)[C@H](O[C@@H]3[C@@H](O)[C@H](N)C[C@H](N)[C@H]3O[C@H]3O[C@H](CN)[C@@H](O)[C@H](O)[C@H]3N)O[C@@H]2CNC(=S)Nc2ccc3c(c2)C(=O)c2ccccc2C3=O)[C@H](N)[C@@H](O)[C@@H]1O` (some centres undefined), in test [2], the inhibition result was “Active”.

Consider `NCC1O[C@H](O[C@H]2[C@@H](O)[C@H](O[C@@H]3[C@@H](O)[C@H](N)C[C@H](N)[C@H]3O[C@H]3O[C@H](CN)[C@@H](O)[C@H](O)[C@H]3N)O[C@@H]2CSCCNC(=S)NCCCNC(=S)NCc2ccc3c(c2)C(=O)c2ccccc2C3=O)[C@H](N)[C@@H](O)[C@@H]1O` (some centres undefined), for which, in [2], the inhibition entry is “Active”.

Consider `CCO`, for which the outcome in test [4] was Active.

As for `NCC1O[C@H](O[C@H]2[C@@H](O)[C@H](O[C@H]3[C@H](O)[C@@H](N)C[C@@H](N)[C@@H]3O[C@H]3O[C@H](CN)[C@@H](O)[C@H](O)[C@H]3N)O[C@@H]2CO)[C@H](N)[C@@H](O)[C@@H]1O` (some centres undefined), the outcome in test [7] was Active. Moreover, the inhibition result in test [2] was “inactive”.

Regarding `NCC1O[C@H](O[C@H]2[C@@H](O)[C@H](O[C@@H]3[C@@H](O)[C@H](N)C[C@H](N)[C@H]3O[C@H]3O[C@H](CN)[C@@H](O)[C@H](O)[C@H]3N)O[C@@H]2CNC(=S)NCc2ccc3c(c2)C(=O)c2ccccc2C3=O)[C@H](N)[C@@H](O)[C@@H]1O` (some centres undefined), in test [8], the IC50 worked out at 0.748 µM. For the same compound, the Ka in [1] stood at 5.27 ×10⁶ /M; in [3], 14.1 ×10⁶ /M. In addition, the inhibition entry in test [2] was “Active”.

Regarding `NCC1O[C@H](O[C@H]2[C@@H](O)[C@H](O[C@@H]3[C@@H](O)[C@H](N)C[C@H](N)[C@H]3O[C@H]3O[C@H](CN)[C@@H](O)[C@H](O)[C@H]3N)O[C@@H]2CSCCNC(=S)NCCNC(=S)NCc2ccc3c(c2)C(=O)c2ccccc2C3=O)[C@H](N)[C@@H](O)[C@@H]1O` (some centres undefined), the results for the Ka in test [1] and in test [3] were 3.09 ×10⁶ /M and 2.28 ×10⁶ /M, respectively. Further, the inhibition result in test [2] was “Active”.

On to `NCCCNCCCCNCCCN`, for which the outcome in test [7] was Active.

For `CN1/C(=C/c2cc[n+](C)c3ccccc23)Sc2ccccc21`, the result in test [9] was inactive.

Consider `NCC1O[C@H](O[C@H]2[C@@H](O)[C@H](O[C@@H]3[C@@H](O)[C@H](N)C[C@H](N)[C@H]3O[C@H]3O[C@H](CN)[C@@H](O)[C@H](O)[C@H]3N)O[C@@H]2CSCCNC(=S)Nc2ccc3c(c2)C(=O)c2ccccc2C3=O)[C@H](N)[C@@H](O)[C@@H]1O` (some centres undefined), for which the inhibition result in [2] is “Active”.

Turning to `NCC1O[C@H](O[C@H]2[C@@H](O)[C@H](O[C@@H]3[C@@H](O)[C@H](N)C[C@H](N)[C@H]3O[C@H]3O[C@H](CN)[C@@H](O)[C@H](O)[C@H]3N)O[C@@H]2CSCCNC(=S)NCCCOCCCCOCCCNC(=S)NCc2ccc3c(c2)C(=O)c2ccccc2C3=O)[C@H](N)[C@@H](O)[C@@H]1O` (some centres undefined), the Ka in [1] came to 18.4 ×10⁶ /M; in test [3], 4.02 ×10⁶ /M. Further, in test [2], the inhibition result is “Active”.
